In patent US12070445B2, “System and assay for monitoring production/release of membrane-lytic toxins in bacteria and compounds for modulating same” (priority 2021, dated 2024):

System: agr
Assay: agr YFP transcriptional reporter assay (S. aureus AH1677 with pDB59)
Assay type: cell-based
Details: Staphylococcus aureus, 24 h, read-out: IC50 in the agr reporter assay
Method in brief: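 S. aureus AH1677 carrying the agr-YFP reporter, diluted 1:50 in BHI with 1:3 compound dilutions, incubated ~24 h at 37 °C with shaking. YFP fluorescence (ex 510/em 544) corrected for BHI background and OD600, normalized to DMSO vehicle. IC50 from 3-parameter regression; technical triplicate, ≥3 biological replicates.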

Compound `CC(C)c1ccc(S(=O)(=O)c2nnn3c2nc(O)c2ccccc23)cc1` [Compound 6, savirin] has an IC50 of 5.5 µM.
